Test system: Hepatitis B Virus (HBV)
Test: Serum HBsAg levels in pHBV model mice (ELISA)
Format: in vivo
Design: key to Average HBsAg levels normalized to pre-treatment (day −1) and PBS control / Average HBsAg levels normalized to pre-treatment and PBS control: fraction of pre-treatment level, relative to PBS control mean
Conditions: for Average HBsAg levels normalized to pre-treatment (day −1) and PBS control: single s.c. injection day 1, Example 7; for Average HBsAg normalized to pre-treatment and PBS control: single s.c. injection on day 1; for Average HBsAg levels normalized to pre-treatment and PBS control (Group A used as control): 3.0 mg/kg, s.c. injection on day 1 and day 22, Example 10
Description: Six to eight-week-old female NOD.CB17-Prkdscid/NcrCrl (NOD-SCID) mice were transiently transfected in vivo with MC-HBV1.3 by hydrodynamic tail vein injection (Yang P L et al. “Hydrodynamic injection of viral DNA: a mouse model of acute hepatitis B virus infection,” PNAS USA 2002 Vol. 99: p. 13825-13830), administered 30 to 45 days prior to administration of an HBV RNAi agent or control. MC-HBV1.3 is a plasmid-derived minicircle that contains the same terminally redundant human hepatitis B virus sequence HBV1.3 as in plasmid pHBV1.3 and in the HBV1.3.32 transgenic mice (GenBank accession #V01460) (Guidotti L G et al., “High-level hepatitis B virus replication in transgenic mice,” J Virol 1995 Vol. 69, p 6158-6169.). 5 or 10 μg MC-HBV1.3 in Ringer's Solution in a total volume of 10% of the animal's body weight was injected into mice via tail vein to create pHBV model of chronic HBV infection. The solution was injected through a 27-gauge needle in 5-7 seconds as previously described (Zhang G et al., “High levels of foreign gene expression in hepatocytes after tail vein injection of naked plasmid DNA.” Human Gene Therapy 1999 Vol. 10, p 1735-1737.). At pre-dose (either day 1 pre-dose, day −1, or day −2), Hepatitis B surface antigen (HBsAg) HBsAg expression levels in serum were measured by ELISA and the mice were grouped according to average HBsAg expression levels.
HBV expression levels were normalized to pre-administration expression levels and to control mice injected with phosphate buffered saline (“PBS”).
Mice were anesthetized with 2-3% isoflurane and blood samples were collected from the submandibular area into serum separation tubes (Sarstedt AG & Co., Nümbrecht, Germany). Blood was allowed to coagulate at ambient temperature for 20 min. The tubes were centrifuged at 8,000×g for 3 min to separate the serum and stored at 4° C.
Serum was collected and diluted 10 to 8000-fold in PBS containing 5% nonfat dry milk. […] HBsAg levels were determined with a GS HBsAg EIA 3.0 kit (Bio-Rad Laboratories, Inc., Redmond, Wash.) as described by the manufacturer. Recombinant HBsAg protein, ayw subtype, also diluted in nonfat milk in PBS, was used as a primary standard (Aldevron).
HBsAg expression for each animal was normalized to the control group of mice injected with PBS in order to account for the non-treatment related decline in expression of MC-HBV1.3. First, the HBsAg level for each animal at a time point was divided by the pre-treatment level of expression in that animal in order to determine the ratio of expression “normalized to pre-treatment”. Expression at a specific time point was then normalized to the control group by dividing the “normalized to pre-treatment” ratio for an individual animal by the average “normalized to pre-treatment” ratio of all mice in the normal PBS control group.

## AD04776: HBV RNAi agent duplex AM05850-AS/AM06150-SS (antisense UACCAAUUUAUGCCUACAGCC; sense GGCUGUAGGCAUAAAUUGGUA; chemistry not fully specified)
Day 8, 1.0 mg/kg
  Average HBsAg levels normalized to pre-treatment (day −1) and PBS control: 0.279 ± 0.057
Day 8, 2.0 mg/kg
  Average HBsAg levels normalized to pre-treatment (day −1) and PBS control: 0.224 ± 0.018
Day 8, 2.0 mg/kg, Example 15
  Average HBsAg normalized to pre-treatment and PBS control: 0.339 ± 0.076
Day 8
  Average HBsAg levels normalized to pre-treatment and PBS control (Group A used as control): 0.197 ± 0.081
Day 8, 4.0 mg/kg
  Average HBsAg levels normalized to pre-treatment (day −1) and PBS control: 0.117 ± 0.069
Day 15, 1.0 mg/kg
  Average HBsAg levels normalized to pre-treatment (day −1) and PBS control: 0.245 ± 0.032
Day 15, 2.0 mg/kg
  Average HBsAg levels normalized to pre-treatment (day −1) and PBS control: 0.161 ± 0.009
Day 15, 2.0 mg/kg, Example 15
  Average HBsAg normalized to pre-treatment and PBS control: 0.414 ± 0.126
Day 15
  Average HBsAg levels normalized to pre-treatment and PBS control (Group A used as control): 0.308 ± 0.138
Day 15, 4.0 mg/kg
  Average HBsAg levels normalized to pre-treatment (day −1) and PBS control: 0.085 ± 0.039
Day 22, 1.0 mg/kg
  Average HBsAg levels normalized to pre-treatment (day −1) and PBS control: 0.374 ± 0.121
Day 22, 2.0 mg/kg
  Average HBsAg levels normalized to pre-treatment (day −1) and PBS control: 0.310 ± 0.016
Day 22, 2.0 mg/kg, Example 15
  Average HBsAg normalized to pre-treatment and PBS control: 0.385 ± 0.067
Day 22
  Average HBsAg levels normalized to pre-treatment and PBS control (Group A used as control): 0.476 ± 0.156
Day 22, 4.0 mg/kg
  Average HBsAg levels normalized to pre-treatment (day −1) and PBS control: 0.148 ± 0.045
Day 29, 1.0 mg/kg
  Average HBsAg levels normalized to pre-treatment (day −1) and PBS control: 0.304
Day 29, 2.0 mg/kg
  Average HBsAg levels normalized to pre-treatment (day −1) and PBS control: 0.482
Day 29, 2.0 mg/kg, Example 15
  Average HBsAg normalized to pre-treatment and PBS control: 0.450 ± 0.075
Day 29
  Average HBsAg levels normalized to pre-treatment and PBS control (Group A used as control): 0.246 ± 0.081
Day 29, 4.0 mg/kg
  Average HBsAg levels normalized to pre-treatment (day −1) and PBS control: 0.198
Day 36, 2.0 mg/kg, Example 15
  Average HBsAg normalized to pre-treatment and PBS control: 0.617 ± 0.116
Day 36
  Average HBsAg levels normalized to pre-treatment and PBS control (Group A used as control): 0.244 ± 0.097
Day 43, 2.0 mg/kg, Example 15
  Average HBsAg normalized to pre-treatment and PBS control: 0.643 ± 0.154
Day 43
  Average HBsAg levels normalized to pre-treatment and PBS control (Group A used as control): 0.179 ± 0.061
Day 50, 2.0 mg/kg, Example 15
  Average HBsAg normalized to pre-treatment and PBS control: 0.665 ± 0.199
Example 15, administered alone or in combination with AD04872, across each of the time points measured
  knockdown of HBsAg compared to PBS control: significant knockdown of HBsAg

## AD04982: HBV RNAi agent duplex AM06464-AS/AM06150-SS (antisense UACCAAUUUAUGCCUACAGCC; sense GGCUGUAGGCAUAAAUUGGUA; chemistry not fully specified)
Day 8, 1.0 mg/kg
  Average HBsAg levels normalized to pre-treatment (day −1) and PBS control: 0.519 ± 0.058
Day 8, 2.0 mg/kg
  Average HBsAg levels normalized to pre-treatment (day −1) and PBS control: 0.342 ± 0.062
Day 15, 1.0 mg/kg
  Average HBsAg levels normalized to pre-treatment (day −1) and PBS control: 0.375 ± 0.012
Day 15, 2.0 mg/kg
  Average HBsAg levels normalized to pre-treatment (day −1) and PBS control: 0.255 ± 0.046
Day 22, 1.0 mg/kg
  Average HBsAg levels normalized to pre-treatment (day −1) and PBS control: 0.422 ± 0.046
Day 22, 2.0 mg/kg
  Average HBsAg levels normalized to pre-treatment (day −1) and PBS control: 0.272 ± 0.122
Day 29, 1.0 mg/kg
  Average HBsAg levels normalized to pre-treatment (day −1) and PBS control: 0.525
Day 29, 2.0 mg/kg
  Average HBsAg levels normalized to pre-treatment (day −1) and PBS control: 0.314

From patent US20190255091A1, “RNAi AGENTS FOR [sequence] B VIRUS INFECTION” (priority 2016, published 2019)
